Here are results for three compounds from patent US4305951A, “Novel amino derivatives of 5-(2-hydroxystyryl)-isoxazole, their preparation and therapeutic formulations containing these compounds” (BASF Aktiengesellschaft, priority 1979, dated 1981).

Entries after “also recorded” stand apart in the source; their conditions may differ.

The subject of data set [1] is blood pressure in the carotid artery. Kind of data set: Hypotensive action on narcotized rats. The settings on record: for ED20: Rattus norvegicus, read-out: ED 20% (dose which lowers the mean carotid blood pressure by 20%). Type of data set: in vivo, rat (Sprague-Dawley). As to the method:
To test the hypotensive action, the compounds are administered intravenously to male Sprague-Dawley rats (weight: 230-280 g) under urethane narcosis (1.78 g/kg administered intraperitineally).
The blood pressure in the carotid artery is measured by means of a Statham transducer. The ED 20% is determined as the dose which lowers the mean carotid pressure by 20%.
^(2) Rats. Urethane narcosis. Intravenous administration. ED 20% =
dose [in mg/kg] which lowers the blood pressure by 20%.

The nature of data set [2]: in vivo. The settings on record: for LD50: ip. An excerpt: Intraperitoneal administration.
Data set [3] concerns isoproterenol-induced tachycardia. Kind of data set: β-Sympatholytic action: inhibition of isoproterenol-induced tachycardia in pithed rats. The settings on record: for ED50: Rattus norvegicus, read-out: ED 50% (dose which inhibits the isoproterenol-induced increase in pulse rate by 50%).
Setting [4] is: urethane narcosis, intravenous administration.

In general, LD50 refers to the dose expected to kill half of the subjects tested. High values mean a less toxic substance, low ones a more toxic substance. For `Cc1cc(/C=C/c2ccccc2OCC(O)CNC(C)CCc2ccc(O)cc2)on1` (centres unmarked) [Example 3, 3-methyl-5-[2-[2-hydroxy-3-(3-(4-hydroxyphenyl)-1-methylpropylamino)-propoxy]-styryl]-isoxazole], in data set [1] (setting [4]), the ED20 is 0.49 mg/kg. Also, in data set [2] (mouse, in vivo), the “Q: lethal dose as multiple of the β-sympatholytically effective dose” value is listed as 24,600, the selectivity ratio turned out to be 24600 and the LD50 was 261 mg/kg. The ED50 in data set [3] (iv) is 0.0106 mg/kg. Moreover, the “β-sympatholytic activity compared with propranolol (in words)” value in data set [3] (pithed rats, intravenous) is “corresponds approximately to that of propranolol”. In addition, in data set [3] (rat, in vivo, iv), the “R.A. = relative activity (β-sympatholytic)” value (from here on “R.A. = relative activity”) stood at 1.20.

Consider `COc1ccc(CCNCC(O)COc2ccccc2/C=C/c2cc(C)no2)cc1OC` (centres unmarked) [Example 4, 3-methyl-5-[2-[2-hydroxy-3-(2-(3,4-dimethoxyphenyl)-1-ethylamino)-propoxy]-styryl]-isoxazole], for which, in data set [1] (setting [4]), the ED20 turned out to be 0.7 mg/kg and the “ED 20% (dose which lowers the mean carotid blood pressure by 20%)” value is given as 0.70 mg/kg. The “Q: lethal dose as multiple of the β-sympatholytically effective dose” value in data set [2] (LD 50 mice i.p. / ED 50% pithed rats i.v.) was 29,900. In addition, in data set [2] (mouse, in vivo), the selectivity ratio came to 29900 and the LD50 stood at 642 mg/kg. In addition, the ED50 in data set [3] (iv) stood at 0.0215 mg/kg. Besides, the “β-sympatholytic activity compared with propranolol (in words)” value in data set [3] (pithed rats, intravenous) is on record as “corresponds approximately to that of propranolol”. For the same compound, the “R.A. = relative activity” value in data set [3] (rat, in vivo, iv) stood at 0.59.

Take `CC(C)NCC(O)COc1cccc2ccccc12` (centres unmarked) [Propranolol, propranolol]: the “increase of blood pressure” value in data set [1] (2.15 mg/kg intravenous, urethane narcosis) is reported as 11%. In addition, the “lowering of blood pressure” value in data set [1] (4.64 mg/kg intravenous, urethane narcosis, average) was 36%. Besides, the animals that died in data set [1] (10 mg/kg intravenous, urethane narcosis) is recorded as 2 out of 6. In addition, in data set [1] (acute test, intravenous), the “hypotensive action (in words)” value is recorded as “does not have a hypotensive effect in acute test conditions; also recorded: up to doses of 2.15 mg/kg, does not lower the blood pressure”. In data set [3] (Propranolol = 1.00, pithed rats, intravenous), the “R.A. = relative activity” value is 1.00.
